The record followed here is patent US12522602B2, “Derivatives having 2,3-dihydro-1H-indene or 2,3-dihydrobenzofuran moiety or pharmaceutically acceptable salt thereof and pharmaceutical compositions comprising the same” (YUHAN CORPORATION, priority 2019, dated 2026).

The first assay deals with GM1 production in Jurkat cells. Put plainly: cells. The assay is classed as cell-based. The following applies: Homo sapiens, Jurkat, 72 h.
`CCc1ccc(-c2ccc3c(c2)CC(CC)(CC)C3NC(=O)O[C@@H]2CN3CCC2CC3)cc1` (stereo partly drawn) [Example 277, (S)-quinuclidin-3-yl (2,2-diethyl-5-(4-ethylphenyl)-2,3-dihydro-1H-inden-1-yl)carbamate] displayed an IC50 of 2.7 nM.

`CCCc1ccc(-c2ccc3c(c2)CC(CC)(CC)C3NC(=O)O[C@@H]2CN3CCC2CC3)cc1` (stereo partly drawn) [Example 278, (S)-quinuclidin-3-yl (2,2-diethyl-5-(4-propylphenyl)-2,3-dihydro-1H-inden-1-yl)carbamate] registered an IC50 of 6 nM.

`CCC1(CC)Cc2cc(-c3ccc(C(C)(C)C)cc3)ccc2C1NC(=O)O[C@@H]1CN2CCC1CC2` (stereo partly drawn) [Example 279, (S)-quinuclidin-3-yl (5-(4-(tert-butyl)phenyl)-2,2-diethyl-2,3-dihydro-1H-inden-1-yl)carbamate] gave an IC50 of 7.3 nM.

Consider `CCCCc1ccc(-c2ccc3c(c2)CC(CC)(CC)C3NC(=O)O[C@@H]2CN3CCC2CC3)cc1` (stereo partly drawn) [Example 280, (S)-quinuclidin-3-yl (5-(4-butylphenyl)-2,2-diethyl-2,3-dihydro-1H-inden-1-yl)carbamate], for which half-maximal inhibition (IC50) required 1.6 nM.

With `CCC1(CC)Cc2cc(-c3ccc(C4CC4)cc3)ccc2C1NC(=O)O[C@@H]1CN2CCC1CC2` (stereo partly drawn) [Example 281, (S)-quinuclidin-3-yl (5-(4-cyclopropylphenyl)-2,2-diethyl-2,3-dihydro-1H-inden-1-yl)carbamate], half-maximal inhibition (IC50) required 5 nM.

The compound `CCC1(CC)Cc2cc(-c3ccc(C(C)C)cc3)ccc2C1NC(=O)O[C@@H]1CN2CCC1CC2` (stereo partly drawn) [Example 282, (S)-quinuclidin-3-yl (2,2-diethyl-5-(4-isopropylphenyl)-2,3-dihydro-1H-inden-1-yl)carbamate] returned an IC50 of 5.6 nM.

For `CCC1(CC)Cc2cc(-c3ccc(OC)cc3)ccc2C1NC(=O)O[C@@H]1CN2CCC1CC2` (stereo partly drawn) [Example 283, (S)-quinuclidin-3-yl (2,2-diethyl-5-(4-methoxyphenyl)-2,3-dihydro-1H-inden-1-yl)carbamate], the IC50 worked out at 17.2 nM.

`CCOc1ccc(-c2ccc3c(c2)CC(CC)(CC)C3NC(=O)O[C@@H]2CN3CCC2CC3)cc1` (stereo partly drawn) [Example 284, (S)-quinuclidin-3-yl (5-(4-ethoxyphenyl)-2,2-diethyl-2,3-dihydro-1H-inden-1-yl)carbamate] had a half-maximal inhibitory concentration (IC50) of 8.5 nM.

For `CCCOc1ccc(-c2ccc3c(c2)CC(CC)(CC)C3NC(=O)O[C@@H]2CN3CCC2CC3)cc1` (stereo partly drawn) [Example 285, (S)-quinuclidin-3-yl (2,2-diethyl-5-(4-propoxyphenyl)-2,3-dihydro-1H-inden-1-yl)carbamate], 3.7 nM corresponded to half-maximal inhibition (IC50).

In turn, `CCC1(CC)Cc2cc(-c3ccc(OC(C)C)cc3)ccc2C1NC(=O)O[C@@H]1CN2CCC1CC2` (stereo partly drawn) [Example 286, (S)-quinuclidin-3-yl (2,2-diethyl-5-(4-isopropoxyphenyl)-2,3-dihydro-1H-inden-1-yl)carbamate] gave an IC50 of 4.1 nM.

The compound `CCC1(CC)Cc2cc(-c3ccc(CC(C)C)cc3)ccc2C1NC(=O)O[C@@H]1CN2CCC1CC2` (stereo partly drawn) [Example 287, (S)-quinuclidin-3-yl (2,2-diethyl-5-(4-isobutylphenyl)-2,3-dihydro-1H-inden-1-yl)carbamate] gave an IC50 of 4.1 nM.

Regarding `CCC1(CC)Cc2cc(-c3cccc(F)c3)ccc2C1NC(=O)O[C@@H]1CN2CCC1CC2` (stereo partly drawn) [Example 288, (S)-quinuclidin-3-yl (2,2-diethyl-5-(3-fluorophenyl)-2,3-dihydro-1H-inden-1-yl)carbamate], inhibition was half-maximal at 11.2 nM (IC50).

As for `CCC1(CC)Cc2cc(-c3cccc(OC)c3)ccc2C1NC(=O)O[C@@H]1CN2CCC1CC2` (stereo partly drawn) [Example 289, (S)-quinuclidin-3-yl (2,2-diethyl-5-(3-methoxyphenyl)-2,3-dihydro-1H-inden-1-yl)carbamate], 7.4 nM corresponded to half-maximal inhibition (IC50).

Turning to `CCOc1cccc(-c2ccc3c(c2)CC(CC)(CC)C3NC(=O)O[C@@H]2CN3CCC2CC3)c1` (stereo partly drawn) [Example 290, (S)-quinuclidin-3-yl (5-(3-ethoxyphenyl)-2,2-diethyl-2,3-dihydro-1H-inden-1-yl)carbamate], the IC50 worked out at 12.3 nM.

`CCC1(CC)Cc2cc(-c3cccc(OC(C)C)c3)ccc2C1NC(=O)O[C@@H]1CN2CCC1CC2` (stereo partly drawn) [Example 291, (S)-quinuclidin-3-yl (2,2-diethyl-5-(3-isopropoxyphenyl)-2,3-dihydro-1H-inden-1-yl)carbamate] gave an IC50 of 13.5 nM.

`CCc1cccc(-c2ccc3c(c2)CC(CC)(CC)C3NC(=O)O[C@@H]2CN3CCC2CC3)c1` (stereo partly drawn) [Example 292, (S)-quinuclidin-3-yl (2,2-diethyl-5-(3-ethylphenyl)-2,3-dihydro-1H-inden-1-yl)carbamate] registered an IC50 of 7.8 nM.

`CCC1(CC)Cc2cc(-c3cccc(C(C)C)c3)ccc2C1NC(=O)O[C@@H]1CN2CCC1CC2` (stereo partly drawn) [Example 293, (S)-quinuclidin-3-yl (2,2-diethyl-5-(3-isopropylphenyl)-2,3-dihydro-1H-inden-1-yl)carbamate]: inhibition was half-maximal at 8.7 nM (IC50).

As to `CCC1(CC)Cc2cc(-c3cccc(C(C)(C)C)c3)ccc2C1NC(=O)O[C@@H]1CN2CCC1CC2` (stereo partly drawn) [Example 294, (S)-quinuclidin-3-yl (5-(3-(tert-butyl)phenyl)-2,2-diethyl-2,3-dihydro-1H-inden-1-yl)carbamate], the IC50 was determined as 10.4 nM.

As to `CCC1(CC)Cc2cc(-c3cccc(OC)c3OC)ccc2C1NC(=O)O[C@@H]1CN2CCC1CC2` (stereo partly drawn) [Example 295, (S)-quinuclidin-3-yl (5-(2,3-dimethoxyphenyl)-2,2-diethyl-2,3-dihydro-1H-inden-1-yl)carbamate], inhibition was half-maximal at 35 nM (IC50).

`CCC1(CC)Cc2cc(-c3ccc(OC)cc3OC)ccc2C1NC(=O)O[C@@H]1CN2CCC1CC2` (stereo partly drawn) [Example 296, (S)-quinuclidin-3-yl (5-(2,4-dimethoxyphenyl)-2,2-diethyl-2,3-dihydro-1H-inden-1-yl)carbamate]: inhibition was half-maximal at 15.6 nM (IC50).

On to `CCC1(CC)Cc2cc(-c3cc(OC)ccc3OC)ccc2C1NC(=O)O[C@@H]1CN2CCC1CC2` (stereo partly drawn) [Example 297, (S)-quinuclidin-3-yl (5-(2,5-dimethoxyphenyl)-2,2-diethyl-2,3-dihydro-1H-inden-1-yl)carbamate], for which the IC50 was 3 nM.

Compound `CCC1(CC)Cc2cc(-c3ccc(OC)c(OC)c3)ccc2C1NC(=O)O[C@@H]1CN2CCC1CC2` (stereo partly drawn) [Example 298, (S)-quinuclidin-3-yl (5-(3,4-dimethoxyphenyl)-2,2-diethyl-2,3-dihydro-1H-inden-1-yl)carbamate] gave an IC50 of 63.2 nM.

`CCC1(CC)Cc2cc(-c3cc(OC)cc(OC)c3)ccc2C1NC(=O)O[C@@H]1CN2CCC1CC2` (stereo partly drawn) [Example 299, (S)-quinuclidin-3-yl (5-(3,5-dimethoxyphenyl)-2,2-diethyl-2,3-dihydro-1H-inden-1-yl)carbamate] yielded an IC50 of 25.3 nM.

For the compound `CCC1(CC)Cc2cc(-c3c(OC)cccc3OC)ccc2C1NC(=O)O[C@@H]1CN2CCC1CC2` (stereo partly drawn) [Example 300, (S)-quinuclidin-3-yl (5-(2,6-dimethoxyphenyl)-2,2-diethyl-2,3-dihydro-1H-inden-1-yl)carbamate], inhibition was half-maximal at 23 nM (IC50).

As to `CCC1(CC)Cc2cc(-c3cccc(C(F)F)c3)ccc2C1NC(=O)O[C@@H]1CN2CCC1CC2` (stereo partly drawn) [Example 301, (S)-quinuclidin-3-yl (5-(3-(difluoromethyl)phenyl)-2,2-diethyl-2,3-dihydro-1H-inden-1-yl)carbamate], the IC50 came to 9.6 nM.

`CCC1(CC)Cc2cc(-c3cccc(N(C)C)c3)ccc2C1NC(=O)O[C@@H]1CN2CCC1CC2` (stereo partly drawn) [Example 302, (S)-quinuclidin-3-yl (5-(3-(dimethylamino)phenyl)-2,2-diethyl-2,3-dihydro-1H-inden-1-yl)carbamate] had a half-inhibitory concentration (IC50) of 4 nM.

Turning to `CCOc1c(C)cc(-c2ccc3c(c2)CC(CC)(CC)C3NC(=O)O[C@@H]2CN3CCC2CC3)cc1C` (stereo partly drawn) [Example 303, (S)-quinuclidin-3-yl (5-(4-ethoxy-3,5-dimethylphenyl)-2,2-diethyl-2,3-dihydro-1H-inden-1-yl)carbamate], the IC50 came to 27.2 nM.

Compound `CCCCOc1c(C)cc(-c2ccc3c(c2)CC(CC)(CC)C3NC(=O)O[C@@H]2CN3CCC2CC3)cc1C` (stereo partly drawn) [Example 305, (S)-quinuclidin-3-yl (5-(4-butoxy-3,5-dimethylphenyl)-2,2-diethyl-2,3-dihydro-1H-inden-1-yl)carbamate] returned an IC50 of 9.8 nM.

`CCC1(CC)Cc2cc(-c3ccsc3)ccc2C1NC(=O)O[C@@H]1CN2CCC1CC2` (stereo partly drawn) [Example 306, (S)-quinuclidin-3-yl (2,2-diethyl-5-(thiophen-3-yl)-2,3-dihydro-1H-inden-1-yl)carbamate] had an IC50 of 27.5 nM.

In turn, `CCC1(CC)Cc2cc(-c3ccoc3)ccc2C1NC(=O)O[C@@H]1CN2CCC1CC2` (stereo partly drawn) [Example 307, (S)-quinuclidin-3-yl (2,2-diethyl-5-(furan-3-yl)-2,3-dihydro-1H-inden-1-yl)carbamate] came in with an IC50 of 30.2 nM.

As to `CCC1(CC)Cc2cc(-c3ccc(OCC4CC4)nc3)ccc2C1NC(=O)O[C@@H]1CN2CCC1CC2` (stereo partly drawn) [Example 308, (S)-quinuclidin-3-yl (5-(6-(cyclopropylmethoxy)pyridin-3-yl)-2,2-diethyl-2,3-dihydro-1H-inden-1-yl)carbamate], the IC50 was determined as 5.5 nM.

`CCC1(CC)Cc2cc(-c3ccc4c(c3)OC(F)(F)O4)ccc2C1NC(=O)O[C@@H]1CN2CCC1CC2` (stereo partly drawn) [Example 309, (S)-quinuclidin-3-yl (5-(2,2-difluorobenzo[d][1,3]dioxol-5-yl)-2,2-diethyl-2,3-dihydro-1H-inden-1-yl)carbamate] yielded an IC50 of 11.2 nM.

In turn, `CCC1(CC)Cc2cc(-c3ccc(OC)cc3F)ccc2C1NC(=O)O[C@@H]1CN2CCC1CC2` (stereo partly drawn) [Example 310, (S)-quinuclidin-3-yl (2,2-diethyl-5-(2-fluoro-4-methoxyphenyl)-2,3-dihydro-1H-inden-1-yl)carbamate] came in with an IC50 of 16.3 nM.

`CCC1(CC)Cc2cc(-c3ccc(OC(C)C)c(Cl)c3)ccc2C1NC(=O)O[C@@H]1CN2CCC1CC2` (stereo partly drawn) [Example 311, (S)-quinuclidin-3-yl (5-(3-chloro-4-isopropoxyphenyl)-2,2-diethyl-2,3-dihydro-1H-inden-1-yl)carbamate] had an IC50 of 27 nM.

The assay is the same for the next values; noted with them: read-out: IC50.
Take `CCCOc1c(C)cc(-c2ccc3c(c2)CC(CC)(CC)C3NC(=O)O[C@@H]2CN3CCC2CC3)cc1C` (stereo partly drawn) [Example 304, (S)-quinuclidin-3-yl (5-(3,5-dimethyl-4-propoxyphenyl)-2,2-diethyl-2,3-dihydro-1H-inden-1-yl)carbamate]: the IC50 came out at 23.5 nM.
